Test results: US8221991B2, “Orphan nuclear receptor” (priority 1998, dated 2012)
“Also recorded” adds a separate entry of the source.

Columns and labels:
hPXR [1] = target: T1, hPXR (Homo sapiens, UniProt O75469); experiment: Cotransfection assay, pSG5-hPXR ATG with (IR6)3-tk-CAT reporter in CV-1 cells; details: for activation of hPXR (CAT activity): 1 μM lovastatin, 100 μM phenobarbital, 10 μM of the other compounds
T1 sequence (O75469 1-434): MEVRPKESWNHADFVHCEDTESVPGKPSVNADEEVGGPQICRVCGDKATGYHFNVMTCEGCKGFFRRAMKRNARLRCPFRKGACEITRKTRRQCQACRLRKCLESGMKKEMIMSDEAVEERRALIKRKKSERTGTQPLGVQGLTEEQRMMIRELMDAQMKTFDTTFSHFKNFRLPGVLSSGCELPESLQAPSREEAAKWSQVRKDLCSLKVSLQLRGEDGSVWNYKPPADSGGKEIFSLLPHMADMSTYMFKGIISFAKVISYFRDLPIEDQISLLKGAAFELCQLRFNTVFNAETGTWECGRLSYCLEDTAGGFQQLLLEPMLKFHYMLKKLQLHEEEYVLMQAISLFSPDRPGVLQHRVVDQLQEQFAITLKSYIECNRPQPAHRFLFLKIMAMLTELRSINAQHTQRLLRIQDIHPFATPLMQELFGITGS
Protocol: (§1) Cells were treated with 1 μM mevastatin or lovastatin, 100 μM phenobarbital, or 10 μM of the other compounds. Cell extracts were subsequently assayed for CAT activity. […] (FIG. 4C) CARLA was performed with bacterially-expressed GST-hPXR or GST-mPXR1 and [^35S]SRC1.14 synthesized in vitro. […] [^35S]SRC1.14 complexed with GST-hPXR (top panel) or GST-mPXR1 (bottom panel) was precipitated with glutathione-sepharose beads.
(§2) CV-1 cells were plated in 24-well plates in DME medium supplemented with 10% charcoal-stripped fetal calf serum at a density of 1.2×10^5 cells per well. […] Cells were transfected overnight by lipofection using Lipofectamine (Life Technologies, Inc.), according to the manufacturer's instructions. The medium was changed to DME medium supplemented with 10% delipidated calf serum (Sigma) and cells were incubated for an additional 24 hours.
To determine, whether hPXR could regulate transcription through the IR6 motif, a reporter plasmid was generated containing three copies of the CYP3A4 IR6 response element upstream of the tk promoter and CAT gene.
It was next determined whether hPXR might mediate the effects of some or all of these compounds on CYP3A4 expression. CV-1 cells were cotransfected with the pSG5-hPXR ATG expression plasmid and the (IR6)3-tk-CAT reporter plasmid, and the cells were treated with micromolar concentrations of a number of compounds that are known to induce CYP3A gene expression in humans and/or rodents.

Biotin-His6-PXR/RXRα = target: T2, Biotin-His6-PXR/RXRα (Homo sapiens, UniProt O75469); experiment: biochemical
T2 sequence (O75469 with tags, fused parts or gaps): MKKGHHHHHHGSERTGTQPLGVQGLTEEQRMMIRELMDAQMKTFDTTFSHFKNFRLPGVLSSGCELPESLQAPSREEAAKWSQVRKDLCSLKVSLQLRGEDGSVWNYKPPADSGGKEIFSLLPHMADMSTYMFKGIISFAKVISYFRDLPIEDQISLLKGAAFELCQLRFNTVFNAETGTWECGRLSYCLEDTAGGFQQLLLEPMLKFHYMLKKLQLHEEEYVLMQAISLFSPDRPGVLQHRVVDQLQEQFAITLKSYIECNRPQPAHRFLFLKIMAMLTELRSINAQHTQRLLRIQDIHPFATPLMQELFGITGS
T2 sequence (P19793 with tags, fused parts or gaps partner limits assumed): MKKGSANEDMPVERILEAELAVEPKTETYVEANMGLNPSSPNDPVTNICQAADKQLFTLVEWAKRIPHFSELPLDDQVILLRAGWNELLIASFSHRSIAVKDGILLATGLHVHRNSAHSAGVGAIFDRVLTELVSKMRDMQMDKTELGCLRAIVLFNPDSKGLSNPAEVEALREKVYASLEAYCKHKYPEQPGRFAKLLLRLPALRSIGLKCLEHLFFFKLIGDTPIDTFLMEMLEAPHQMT
Protocol: Test compounds were dissolved in DMSO at 10 mM and diluted 1:10 in DMSO before serially diluting in assay buffer. […] Streptavidin-PVT SPA beads (AmershamPharmacia cat 4 RPNQ0007) were resuspended in assay buffer (50 mM Tris HCl pH 8.0, 50 mM KCl, 1 mM DTT, 0.1 mg/ml essentially fatty acid free bovine serum albumin) at 0.5 mg/ml. Biotin-His6-PXR/RXRα was added to the beads to a final concentration of 50 nM. The receptors were allowed to couple to the SPA beads for thirty minutes at room temperature. The uncoupled receptor was removed by centrifuging the SPA beads at 3000 rpm for 5 minutes in a swinging bucket rotor of a Rupp & Bowman Silencer centrifuge. The receptor coated SPA beads were then resuspended in assay buffer to 3.3 mg/ml. […] The total volume in each well was 100 μL. […] The plates were then allowed to incubate at room temperature until equilibrium was obtained, approximately 1.5 hours. The plates were then counted on a TopCount liquid scintillation counter (Packard) using a protocol optimized for ^3H PVT SPA and programmed to correct for color quenching.

mPXR1 = mPXR1 (Mus musculus, UniProt O54915); details: CV-1 cells, (IR6)3-tk-CAT reporter; 10 μM
CYP3A4 gene expression = details: cited from earlier work
CYP3A1 levels = details: cited from earlier work
GST-mPXR1 [2] = target: T3, GST-mPXR1 (Mus musculus, UniProt O54915); details: Kliewer et al, Cell 92:73-82 (1998); cited from earlier work
T3 construct: The LBDs of hPXR and mPXR1 were expressed in E. coli as fusion proteins with glutathione-S-transferase (GST); made in house; host or cells: E. coli

GST-mPXR1 [3] = target: T3, GST-mPXR1; experiment: Coactivator-receptor ligand assay (CARLA), GST-mPXR1 with [35S]SRC1.14; type: binding; details: 10 μM
Protocol: as §1
GST-hPXR fusion protein was expressed in BL21(DE3)plysS cells and bacterial extracts prepared by one cycle of freeze-thaw of the cells in Protein Lysis. Buffer containing 10 mM Tris, pH 8.0, 50 mM KCl, 10 mM DTT, and 1% NP-40 followed by centrifugation at 40,000×g for 30 minutes. Glycerol was added to the resulting supernatant to a final concentration of 10%. Lysates were stored at −80° C. [^35S]SRC1.14 was generated using the TNT rabbit reticulocyte system (Promega) in the presence of Pro-Mix (Amersham). Coprecipitation reactions included 25 μl of lysate containing GST-hPXR fusion protein, 25 μl Incubation Buffer (50 mM KCl, 40 mM HEPES pH 7.5, 5 mM β-mercaptoethanol, 1% Tween-20, 1% non-fat dry milk), 5 μl […], and vehicle (1% DMSO) or compounds as indicated. […]

hPXR [4] = target: T1, hPXR; details: CV-1 cells; 10 μM
Protocol: FIGS. 1A-1D. […] Cell extracts were subsequently assayed for CAT activity.
as §2

T3 sequence (O54915 143-430 limits assumed): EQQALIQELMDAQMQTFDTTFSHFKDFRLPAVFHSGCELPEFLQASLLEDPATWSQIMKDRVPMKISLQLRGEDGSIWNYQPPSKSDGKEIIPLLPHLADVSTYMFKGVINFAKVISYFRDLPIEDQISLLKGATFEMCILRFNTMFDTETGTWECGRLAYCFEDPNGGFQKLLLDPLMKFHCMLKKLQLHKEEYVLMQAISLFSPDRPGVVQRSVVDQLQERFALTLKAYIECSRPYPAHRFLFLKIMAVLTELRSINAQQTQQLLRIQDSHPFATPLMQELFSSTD
T3 sequence (Q15788 whole entry partner, the tested form may be a part): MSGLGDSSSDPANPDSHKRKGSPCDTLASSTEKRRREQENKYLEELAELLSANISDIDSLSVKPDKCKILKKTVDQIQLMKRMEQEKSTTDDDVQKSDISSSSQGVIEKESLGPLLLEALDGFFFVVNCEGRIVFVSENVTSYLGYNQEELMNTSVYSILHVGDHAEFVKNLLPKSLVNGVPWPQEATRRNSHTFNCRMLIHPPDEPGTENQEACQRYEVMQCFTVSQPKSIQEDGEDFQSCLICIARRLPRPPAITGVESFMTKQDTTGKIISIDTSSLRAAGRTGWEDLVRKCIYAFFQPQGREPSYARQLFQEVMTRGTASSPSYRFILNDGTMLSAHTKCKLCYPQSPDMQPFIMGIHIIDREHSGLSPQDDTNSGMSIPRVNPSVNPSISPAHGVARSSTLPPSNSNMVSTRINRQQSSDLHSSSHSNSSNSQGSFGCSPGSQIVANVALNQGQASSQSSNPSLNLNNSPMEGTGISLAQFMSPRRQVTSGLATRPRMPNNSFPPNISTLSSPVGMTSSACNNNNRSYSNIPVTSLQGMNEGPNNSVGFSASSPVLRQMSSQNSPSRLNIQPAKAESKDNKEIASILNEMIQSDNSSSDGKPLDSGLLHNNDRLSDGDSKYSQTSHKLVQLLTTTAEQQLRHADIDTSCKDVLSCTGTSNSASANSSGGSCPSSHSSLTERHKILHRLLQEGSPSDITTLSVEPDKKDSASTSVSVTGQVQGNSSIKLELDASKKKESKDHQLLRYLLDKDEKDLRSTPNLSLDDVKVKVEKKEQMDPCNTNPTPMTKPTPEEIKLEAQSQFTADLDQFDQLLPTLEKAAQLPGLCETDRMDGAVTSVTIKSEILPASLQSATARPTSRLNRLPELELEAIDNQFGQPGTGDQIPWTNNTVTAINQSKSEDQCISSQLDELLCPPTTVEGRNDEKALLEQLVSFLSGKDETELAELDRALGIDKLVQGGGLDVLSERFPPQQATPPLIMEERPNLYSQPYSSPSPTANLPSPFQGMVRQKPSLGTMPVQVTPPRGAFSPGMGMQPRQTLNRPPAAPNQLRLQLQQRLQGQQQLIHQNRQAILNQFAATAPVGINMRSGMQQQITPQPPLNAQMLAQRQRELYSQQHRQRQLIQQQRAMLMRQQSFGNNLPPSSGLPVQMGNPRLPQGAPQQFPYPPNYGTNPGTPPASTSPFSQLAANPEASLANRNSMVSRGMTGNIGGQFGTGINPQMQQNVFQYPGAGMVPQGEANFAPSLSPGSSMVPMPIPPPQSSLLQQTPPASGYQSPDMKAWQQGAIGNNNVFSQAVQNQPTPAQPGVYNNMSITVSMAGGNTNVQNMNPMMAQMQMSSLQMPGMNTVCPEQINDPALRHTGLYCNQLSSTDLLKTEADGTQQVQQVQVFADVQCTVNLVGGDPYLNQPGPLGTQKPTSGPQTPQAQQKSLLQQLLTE
Sequence of mPXR1 (O54915 whole entry): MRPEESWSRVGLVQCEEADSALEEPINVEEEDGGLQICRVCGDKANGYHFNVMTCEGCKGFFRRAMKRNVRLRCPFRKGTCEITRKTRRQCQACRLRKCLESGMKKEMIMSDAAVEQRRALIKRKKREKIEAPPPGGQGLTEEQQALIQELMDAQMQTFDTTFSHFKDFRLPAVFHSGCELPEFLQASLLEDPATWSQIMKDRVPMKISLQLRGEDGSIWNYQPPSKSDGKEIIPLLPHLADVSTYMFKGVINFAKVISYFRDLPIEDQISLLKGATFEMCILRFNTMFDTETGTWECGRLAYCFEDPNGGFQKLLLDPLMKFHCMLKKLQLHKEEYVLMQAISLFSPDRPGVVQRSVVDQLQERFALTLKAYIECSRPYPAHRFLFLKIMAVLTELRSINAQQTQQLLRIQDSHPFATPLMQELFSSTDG

In the case of `CC(=O)[C@H]1CC[C@H]2[C@@H]3CC[C@@H]4CC(=O)CC[C@]4(C)[C@H]3CC[C@]12C` [5 β-pregnane-3,20-dione], the “fold activation of hPXR” value (hPXR [1]; 10 μM) is reported as “roughly 4 fold” and the IC50 (Biotin-His6-PXR/RXRα) is reported as 1000 nM.
In the case of `CC(=O)[C@H]1[C@H](C#N)C[C@H]2[C@@H]3CC=C4C[C@@H](O)CC[C@]4(C)[C@H]3CC[C@@]21C` [PCN], the “fold activation of mPXR1” value (mPXR1) is given as “roughly 9 fold”, the “activation of hPXR (CAT activity)” value (hPXR [1]) is given as “activated” and the “induction of CYP3A4 gene expression / CYP3A levels in human hepatocytes” value (CYP3A4 gene expression) is given as “only modest effects”. For the same compound, the “effect on CYP3A1 / CYP3A levels in rat hepatocytes” value (CYP3A1 levels) was “marked effects” and the “interaction of the mPXR1 LBD with SRC1.14” value (GST-mPXR1 [2]) was “promote the interaction”.
For `Clc1ccccc1C(c1ccccc1)(c1ccccc1)n1ccnc1` [clotrimazole], the IC50 (Biotin-His6-PXR/RXRα) was 1300 nM and the “interaction between GST-mPXR1 and [35S]SRC1.14” value (GST-mPXR1 [3]) was “did not”.
With `C[C@@H]1C[C@H]2[C@@H]3CCC4=CC(=O)C=C[C@]4(C)[C@@]3(F)[C@@H](O)C[C@]2(C)[C@@]1(O)C(=O)COC(=O)CC(C)(C)C` [dexamethasone-t-butylacetate] the “activation of hPXR (CAT activity)” value (hPXR [1]) was “induced reporter levels; also recorded: activated”, the “activation of hPXR (CAT activity)” value (hPXR [1]; listed as Dexamethasone-t-butylacetate) was “most efficacious activators” and the “activation of hPXR (CAT activity), CYP3A1 DR3 PXRE reporter” value (hPXR [4]) was “activated efficiently”.
In the case of `CC[C@H](C)C(=O)O[C@H]1C[C@@H](C)C=C2C=C[C@H](C)[C@H](CC[C@@H]3C[C@@H](O)CC(=O)O3)[C@H]21` [lovastatin], the “activation of hPXR (CAT activity)” value (hPXR [1]) is reported as “activated; also recorded: more efficacious activators of hPXR than mPXR1”.
For `CCC1(c2ccccc2)C(=O)NC(=O)NC1=O` [phenobarbital], the “activation of hPXR (CAT activity)” value (hPXR [1]) was “activated; also recorded: more efficacious activators of hPXR than mPXR1”.
In the case of `ClC1=C(Cl)[C@]2(Cl)[C@H]3[C@H]([C@H](Cl)C(Cl)[C@@H]3Cl)[C@@]1(Cl)C2(Cl)Cl` (stereo partly drawn) [transnonachlor], the “activation of hPXR (CAT activity)” value (hPXR [1]) is reported as “activated”.
